# Measurements taken from patent US20250115620A1, “BRIDGED TRICYCLIC CARBAMOYLPYRIDONE COMPOUNDS AND USES THEREOF” (Gilead Sciences, Inc., priority 2022, published 2025).
# Read-outs that look alike come from different tables or passages of the source.
# Tests used:
# HIV-1 (IIIB) = test: microbe, parasite or virus in culture; assay type: cell-based; details: Human immunodeficiency virus 1, IIIB, MT4, 120 h, read-out: MT4 EC50
# pLAI reporter virus = test: microbe, parasite or virus in culture; assay type: cell-based, HIV; details: Human immunodeficiency virus 1, MT4, 72 h
# in vitro = details: human; for CC50 at 5 days: uninfected MT-4 cells
# Description: Compounds were serially diluted (1:3) in DMSO on 384-well polypropylene plates and further diluted 200-fold into complete RPMI media (10% FBS, 1% P/S) using the Biotek Micro Flow and Labcyte ECHO acoustic dispenser. […] Infected and uninfected MT-4 cells were further diluted in complete RPMI media and added to each plate using a Micro Flow dispenser. After 5 days incubation in a humidified and temperature controlled incubator (37° C.), Cell Titer Glo (Promega) was added to the assay plates and chemiluminescence read using an Envision plate-reader.
# Assays were performed as above except uninfected MT-4 cells were added to each well containing test compound. In addition, 10 μM puromycin was added to the last column of each assay plate to assess a base level of cytotoxicity.
# [1] = HIV-1 (IIIB) in MT-4 cells, 5 days incubation, Cell Titer Glo
SMILES,EC50 (HIV-1 (IIIB); [1]) [nM],EC50 (pLAI reporter virus; read-out: RLUC 50% HS EC50) [nM],EC50 (pLAI reporter virus; read-out: RLUC CCM EC50) [nM],CC50 at 5 days (in vitro) [nM],EC50 (HIV-1 (IIIB)) [nM],CC50 (in vitro) [nM]
"CC1=NO[C@]2(C1)C[C@H](F)[C@H](C)N1C[C@H]2n2cc(C(=O)NCc3ccc(F)cc3F)c(=O)c(O)c2C1=O [Example 5, (3′S,4′S,5R,7′R)—N-(2,4-difluorobenzyl)-4′-fluoro-12′-hydroxy-3,3′-dimethyl-1′,11′-dioxo-1′,4′,5′,11′-tetrahydro-3′H,4H,7′H-spiro[isoxazole-5,6′-[2,7]methanopyrido[1,2-a][1,4]diazonine]-10′-carboxamide]",1.6,27.4,0.4,25800,,
"CC1=NO[C@@]2(CC[C@H](C)N3C[C@H]2n2cc(C(=O)NCc4ccc(F)c(Cl)c4F)c(=O)c(O)c2C3=O)C1 [Example 6, (3′S,5S,7′R)—N-(3-chloro-2,4-difluorobenzyl)-12′-hydroxy-3,3′-dimethyl-1′,11′-dioxo-1′,4′,5′,11′-tetrahydro-3′H,4H,7′H-spiro[isoxazole-5,6′-[2,7]methanopyrido[1,2-a][1,4]diazonine]-10′-carboxamide]",0.5,543,0.2,9280,,
"CC(C)C1=NO[C@@]2(CC[C@H](C)N3C[C@H]2n2cc(C(=O)NCc4ccc(F)cc4F)c(=O)c(O)c2C3=O)C1 [Example 7, (3′S,5S,7′R)—N-(2,4-difluorobenzyl)-12′-hydroxy-3-isopropyl-3′-methyl-1′,11′-dioxo-1′,4′,5′,11′-tetrahydro-3′H,4H,7′H-spiro[isoxazole-5,6′-[2,7]methanopyrido[1,2-a][1,4]diazonine]-10′-carboxamide]",1.9,1.6,0.5,38200,,
"CCC1=NO[C@@]2(CC[C@H](C)N3C[C@H]2n2cc(C(=O)NCc4ccc(F)cc4F)c(=O)c(O)c2C3=O)C1 [Example 8, (3′S,5S,7′R)—N-(2,4-difluorobenzyl)-3-ethyl-12′-hydroxy-3′-methyl-1′,11′-dioxo-1′,4′,5′,11′-tetrahydro-3′H,4H,7′H-spiro[isoxazole-5,6′-[2,7]methanopyrido[1,2-a][1,4]diazonine]-10′-carboxamide]",0.8,75.2,0.2,14800,,
C[C@H]1CC[C@]2(CC(CC(F)(F)F)=NO2)[C@H]2CN1C(=O)c1c(O)c(=O)c(C(=O)NCc3c(F)cc(F)cc3F)cn12 [Example 9],0.8,146,0.5,10200,,
"C[C@H]1CC[C@]2(CC(CCCCCl)=NO2)[C@H]2CN1C(=O)c1c(O)c(=O)c(C(=O)NCc3c(F)cc(F)cc3F)cn12 [Example 10, (3′S,5S,7′R)-3-(4-chlorobutyl)-12′-hydroxy-3′-methyl-1′,11′-dioxo-N-(2,4,6-trifluorobenzyl)-1′,4′,5′,11′-tetrahydro-3′H,4H,7′H-spiro[isoxazole-5,6′-[2,7]methanopyrido[1,2-a][1,4]diazonine]-10′-carboxamide]",1.7,5.5,1,5860,,
"C[C@H]1CC[C@]2(CC(c3ccccc3)=NO2)[C@H]2CN1C(=O)c1c(O)c(=O)c(C(=O)NCc3ccc(F)cc3F)cn12 [Example 11, (3′S,5S,7′R)—N-(2,4-difluorobenzyl)-12′-hydroxy-3′-methyl-1′,11′-dioxo-3-phenyl-1′,4′,5′,11′-tetrahydro-3′H,4H,7′H-spiro[isoxazole-5,6′-[2,7]methanopyrido[1,2-a][1,4]diazonine]-10′-carboxamide]",1.8,15.4,1.7,8730,,
"C[C@H]1CC[C@]2(CC(Cc3ccccc3)=NO2)[C@H]2CN1C(=O)c1c(O)c(=O)c(C(=O)NCc3ccc(F)cc3F)cn12 [Example 12, (3′S,5S,7′R)-3-benzyl-N-(2,4-difluorobenzyl)-12′-hydroxy-3′-methyl-1′,11′-dioxo-1′,4′,5′,11′-tetrahydro-3′H,4H,7′H-spiro[isoxazole-5,6′-[2,7]methanopyrido[1,2-a][1,4]diazonine]-10′-carboxamide]",,35.6,1.1,,1.7,23500
"C[C@H]1CC[C@]2(CC(c3ccccn3)=NO2)[C@H]2CN1C(=O)c1c(O)c(=O)c(C(=O)NCc3ccc(F)cc3F)cn12 [Example 13, (3′S,5S,7′R)—N-(2,4-difluorobenzyl)-12′-hydroxy-3′-methyl-1′,11′-dioxo-3-(pyridin-2-yl)-1′,4′,5′,11′-tetrahydro-3′H,4H,7′H-spiro[isoxazole-5,6′-[2,7]methanopyrido[1,2-a][1,4]diazonine]-10′-carboxamide]",4.3,2.1,1.5,≥ 50000,,
"C[C@H]1CC[C@]2(CC(c3cccnc3)=NO2)[C@H]2CN1C(=O)c1c(O)c(=O)c(C(=O)NCc3ccc(F)cc3F)cn12 [Example 14, (3′S,5S,7′R)—N-(2,4-difluorobenzyl)-12′-hydroxy-3′-methyl-1′,11′-dioxo-3-(pyridin-3-yl)-1′,4′,5′,11′-tetrahydro-3′H,4H,7′H-spiro[isoxazole-5,6′-[2,7]methanopyrido[1,2-a][1,4]diazonine]-10′-carboxamide]",1.6,4.1,0.8,16700,,
"C[C@H]1CC[C@]2(CC(C3CC3)=NO2)[C@H]2CN1C(=O)c1c(O)c(=O)c(C(=O)NCc3ccc(F)cc3F)cn12 [Example 15, (3′S,5S,7′R)-3-cyclopropyl-N-(2,4-difluorobenzyl)-12′-hydroxy-3′-methyl-1′,11′-dioxo-1′,4′,5′,11′-tetrahydro-3′H,4H,7′H-spiro[isoxazole-5,6′-[2,7]methanopyrido[1,2-a][1,4]diazonine]-10′-carboxamide]",2.4,3.8,0.8,≥ 50000,,
"C[C@H]1CC[C@]2(CC(CO)=NO2)[C@H]2CN1C(=O)c1c(O)c(=O)c(C(=O)NCc3ccc(F)cc3F)cn12 [Example 16, (3′S,5S,7′R)—N-(2,4-difluorobenzyl)-12′-hydroxy-3-(hydroxymethyl)-3′-methyl-1′,11′-dioxo-1′,4′,5′,11′-tetrahydro-3′H,4H,7′H-spiro[isoxazole-5,6′-[2,7]methanopyrido[1,2-a][1,4]diazonine]-10′-carboxamide]",2.6,52.9,2.8,49400,,
"C[C@H]1CC[C@]2(CC(CF)=NO2)[C@H]2CN1C(=O)c1c(O)c(=O)c(C(=O)NCc3ccc(F)cc3F)cn12 [Example 17, (3′S,5S,7′R)—N-(2,4-difluorobenzyl)-3-(fluoromethyl)-12′-hydroxy-3′-methyl-1′,11′-dioxo-1′,4′,5′,11′-tetrahydro-3′H,4H,7′H-spiro[isoxazole-5,6′-[2,7]methanopyrido[1,2-a][1,4]diazonine]-10′-carboxamide]",0.6,226,0.2,20500,,
"C[C@H]1CC[C@@]2(CC(CF)=NO2)[C@H]2CN1C(=O)c1c(O)c(=O)c(C(=O)NCc3ccc(F)cc3F)cn12 [Example 18, (3′S,5R,7′R)—N-(2,4-difluorobenzyl)-3-(fluoromethyl)-12′-hydroxy-3′-methyl-1′,11′-dioxo-1′,4′,5′,11′-tetrahydro-3′H,4H,7′H-spiro[isoxazole-5,6′-[2,7]methanopyrido[1,2-a][1,4]diazonine]-10′-carboxamide]",4.5,2.4,1.6,≥ 50000,,
"C[C@H]1CC[C@]2(CC(CF)=NO2)[C@H]2CN1C(=O)c1c(O)c(=O)c(C(=O)NCc3c(F)cc(F)cc3F)cn12 [Example 19, (3′S,5S,7′R)-3-(fluoromethyl)-12′-hydroxy-3′-methyl-1′,11′-dioxo-N-(2,4,6-trifluorobenzyl)-1′,4′,5′,11′-tetrahydro-3′H,4H,7′H-spiro[isoxazole-5,6′-[2,7]methanopyrido[1,2-a][1,4]diazonine]-10′-carboxamide]",,163,0.2,22900,1,
"C[C@H]1CC[C@]2(CC(C(F)F)=NO2)[C@H]2CN1C(=O)c1c(O)c(=O)c(C(=O)NCc3c(F)cc(F)cc3F)cn12 [Example 20, (3′S,5S,7′R)-3-(difluoromethyl)-12′-hydroxy-3′-methyl-1′,11′-dioxo-N-(2,4,6-trifluorobenzyl)-1′,4′,5′,11′-tetrahydro-3′H,4H,7′H-spiro[isoxazole-5,6′-[2,7]methanopyrido[1,2-a][1,4]diazonine]-10′-carboxamide]",1.2,168,0.3,12400,,
"C[C@H]1CC[C@]2(CC(C(F)F)=NO2)[C@H]2CN1C(=O)c1c(O)c(=O)c(C(=O)NCc3ccc(F)cc3F)cn12 [Example 21, (3′S,5S,7′R)—N-(2,4-difluorobenzyl)-3-(difluoromethyl)-12′-hydroxy-3′-methyl-1′,11′-dioxo-1′,4′,5′,11′-tetrahydro-3′H,4H,7′H-spiro[isoxazole-5,6′-[2,7]methanopyrido[1,2-a][1,4]diazonine]-10′-carboxamide]",1.4,72.7,0.3,29300,,
"CC1=NO[C@]2(CC[C@H](C)N3C[C@H]2n2cc(C(=O)NCc4ccc(F)cc4F)c(=O)c(O)c2C3=O)C1C (stereo partly drawn) [Example 23, (3′S,5R,7′R)—N-(2,4-difluorobenzyl)-12′-hydroxy-3,3′,4-trimethyl-1′,11′-dioxo-1′,4′,5′,11′-tetrahydro-3′H,4H,7′H-spiro[isoxazole-5,6′-[2,7]methanopyrido[1,2-a][1,4]diazonine]-10′-carboxamide]",1.2,0.9,0.5,≥ 50000,,
